{"source": "patent US5814631A", "about": "“Quinazoline derivatives and applications thereof” (Suntory Limited, priority 1995, dated 1998)"}
{"biological_target": "T1, human heart chymase (Homo sapiens, UniProt P23946)", "T1 sequence (P23946 22-247)": "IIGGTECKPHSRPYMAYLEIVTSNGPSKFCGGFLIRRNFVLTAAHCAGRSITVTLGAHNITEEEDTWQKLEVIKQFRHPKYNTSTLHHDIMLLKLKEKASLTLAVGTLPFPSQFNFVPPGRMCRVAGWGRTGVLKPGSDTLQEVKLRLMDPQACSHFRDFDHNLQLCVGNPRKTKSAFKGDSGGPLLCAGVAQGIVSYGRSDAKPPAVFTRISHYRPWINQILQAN", "assay": "biochemical", "conditions": "Chymase inhibitive activity (IC50), Ang I substrate, 37° C., 30 min, pH 7.5", "units": {"IC50": "nM"}, "experimental": "That is, to 10 μl of a 20 mM trisphosphate buffer (pH 7.5) containing 2MKCl were added 10 μl of purified chymase and 5 μl of a dimethylsulfoxide (hereinafter referred to as DMSO) solution of the test sample. The mixture was preincubated at 37° C. for 10 minutes, then 25 μl of a 1 mM Ang I solution was added and the mixture preincubated at 37° C. for 30 minutes. Next, 50 μl of 30% acetic acid was added to stop the enzymatic reaction. At the same time, a blind test was performed by adding, instead of the test sample solution, 5 μl of DMSO and performing the same reaction.\nThe reacted solution was subjected to high performance liquid chromatography using Develosil ODS-5 (made by Nomura Kagaku, .phi.4.6 mm×150 mm) and developed at a flow rate of 2.0 ml/min in 0.05% TFA by a straight concentration gradient raising the acetonitrile from 0% to 60% over 10 minutes. This was monitored by the absorbance at 210 nm and the peaks identified by comparison with standard samples of Ang I and Ang II. The peak areas were measured by an integrating meter to quantitatively analyze the Ang I and Ang II and calculate the chymase activity."}
{"smiles": "O=C(Cn1c(=O)n(S(=O)(=O)c2ccc(Cl)cc2)c(=O)c2ccc(Cl)cc21)Nc1cccc2ncccc12", "note": "[Example 91, [7-chloro-3-(4-chlorobenzenesulfonyl)-2,4(1H,3H)-quinazolinedion-1-yl]-N-(5-quinolyl)acetamide]", "IC50": 180}
{"smiles": "O=C(Cn1c(=O)n(S(=O)(=O)c2ccc(Cl)cc2)c(=O)c2ccc(Cl)cc21)Nc1ccccc1", "note": "[Example 38, [7-chloro-3-(4-chlorobenzenesulfonyl)-2,4(1H,3H)-quinazolinedion-1-yl]-N-phenylacetamide]", "IC50": 63}
{"smiles": "CC[n+]1cccc(NC(=O)Cn2c(=O)n(S(=O)(=O)c3ccc(C)cc3)c(=O)c3ccc(Cl)cc32)c1", "note": "[Example 95, 3-{7-chloro-[3-(4-methylbenzene-sulfonyl)-3-(4-methoxybenzenesulfonyl)-2,4(1H,3H)-quinazolinedion-1-yl]acetylamino}-N-ethylpyridinium iodide]", "IC50": 210}
{"smiles": "O=C(Cn1c(=O)n(S(=O)(=O)c2ccc(Cl)cc2)c(=O)c2ccc(Cl)cc21)Nc1ccc(Cl)cc1", "note": "[Example 140, [7-chloro-3-(4-chlorobenzenesulfonyl)-2,4(1H,3H)-quinazolinedion-1-yl]-N-(4-chlorophenyl)acetamide]", "IC50": 60}
{"smiles": "C[n+]1ccc(NC(=O)Cn2c(=O)n(S(=O)(=O)c3ccc(Cl)cc3)c(=O)c3ccc(Cl)cc32)cc1", "note": "[Example 58, 4-{[7-chloro-3-(4-chlorobenzenesulfonyl)-2,4(1H,3H)-quinazolinedion-1-yl]acetylamino}-N-methylpyridinium iodide]", "IC50": 130}
{"smiles": "O=C(Cn1c(=O)n(S(=O)(=O)c2ccc(Cl)cc2)c(=O)c2ccc(Cl)cc21)Nc1ccc(C(=O)O)cc1C(=O)O", "note": "[Example 101, [7-chloro-3-(4-chlorobenzenesulfonyl)-2,4 (1H,3H)-quinazolinedion-1-yl]-N-(2,4-dicarboxylphenyl)acetamide]", "IC50": 280}
{"smiles": "N[C@@H](Cc1ccc(NC(=O)Cn2c(=O)n(S(=O)(=O)c3ccc(Cl)cc3)c(=O)c3ccc(Cl)cc32)cc1)C(=O)O", "note": "[Example 99, [7-chloro-3-(4-chlorobenzenesulfonyl)-2,4(1H,3H)-quinazolinedion-1-yl]-N-(4-L-phenylalaninyl)acetamide]", "IC50": 210}
{"smiles": "O=c1c2ccc(Cl)cc2n(COCc2ccccc2)c(=O)n1S(=O)(=O)c1ccc(Cl)cc1", "note": "[Example 109, 1-(benzyloxymethyl)-7-chloro-3-(4-chlorobenzenesulfonyl)-2,4(1H,3H)-quinazolinedione]", "IC50": 240}
{"smiles": "CC(=O)c1ccc(S(=O)(=O)n2c(=O)[nH]c3cc(Cl)ccc3c2=O)cc1", "note": "[Example 149, 3-(4-acetylbenzenesulfonyl)-7-chloro-2,4(1H,3H)-quinazolinedione]", "IC50": 570}
{"smiles": "O=C(Cn1c(=O)n(S(=O)(=O)c2ccc(Cl)cc2)c(=O)c2ccc(Cl)cc21)Nc1ccc(O)cc1", "note": "[Example 39, [7-chloro-3-(4-chlorobenzenesulfonyl)-2,4(1H,3H)-quinazolinedion-1-yl]-N-(4-hydroxyphenyl)acetamide]", "IC50": 65}
{"smiles": "O=C(Cn1c(=O)n(S(=O)(=O)c2ccc(Cl)cc2)c(=O)c2ccc(Cl)cc21)Nc1ccncc1", "note": "[Example 54, [7-chloro-3-(4-chlorobenzenesulfonyl)-2,4(1H,3H)-quinazolinedion-1-yl]-N-(4-pyridyl)acetamide]", "IC50": 34}
{"smiles": "Cc1ccc(S(=O)(=O)n2c(=O)c3ccc(Cl)cc3n(CC(=O)Nc3cccnc3)c2=O)cc1", "note": "[Example 94, [7-chloro-3-(4-methylbenzenesulfonyl)-2,4(1H,3H)-quinazolinedion-1-yl]-N-(3-pyridyl)acetamide]", "IC50": 170}
{"smiles": "O=C(O)c1cccc(Cn2c(=O)n(S(=O)(=O)c3ccc(Cl)cc3)c(=O)c3ccc(Cl)cc32)c1", "note": "[Example 66, 1-(3-carboxybenzyl)-7-chloro-3-(4-chlorobenzenesulfonyl)-2,4(1H,3H)-quinazolinedione]", "IC50": 240}
{"smiles": "O=c1[nH]c2cc(Cl)ccc2c(=O)n1S(=O)(=O)c1ccc(Cl)cc1F", "note": "[Example 134, 7-chloro-3-(4-chloro-2-fluorobenzenesulfonyl)-2,4(1H,3H)-quinazolinedione]", "IC50": 1800}
{"smiles": "O=c1[nH]c2cc(Cl)ccc2c(=O)n1S(=O)(=O)c1ccc(C(F)(F)F)cc1", "note": "[Example 136, 7-chloro-3-(4-trifluoromethylbenzenesulfonyl)-2,4(1H,3H)-quinazolinedione]", "IC50": 460}
{"smiles": "O=C(Cn1c(=O)n(S(=O)(=O)c2ccc(-c3cc[nH]n3)cc2)c(=O)c2ccc(Cl)cc21)Nc1cccnc1", "note": "[Example 121, {7-chloro-3-[4-(3-pyrazolyl)benzenesulfonyl]-2,4(1H,3H)-quinazolinedion-1-yl}-N-(3-pyridlyl)acetamide]", "IC50": 340}
{"smiles": "O=C(Cn1c(=O)n(S(=O)(=O)c2ccc(Cl)cc2)c(=O)c2ccc(Cl)cc21)Nc1ccccc1O", "note": "[Example 41, [7-chloro-3-(4-chlorobenzenesulfonyl)-2,4(1H,3H)-quinazolinedion-1-yl]-N-(2-hydroxyphenyl)acetamide]", "IC50": 310}
{"smiles": "O=C(Cn1c(=O)n(S(=O)(=O)c2ccc(Cl)cc2)c(=O)c2ccc(Cl)cc21)Nc1ccc2[nH]ccc2c1", "note": "[Example 82, [7-chloro-3-(4-chlorobenzenesulfonyl)-2,4(1h,3H)-quinazolinedion-1-yl]-N-(5-indolyl)acetamide]", "IC50": 51}
{"smiles": "Cn1ccc(S(=O)(=O)n2c(=O)c3ccc(Cl)cc3n(CC(=O)Nc3cccnc3)c2=O)c1", "note": "[Example 103, [7-chloro-3-(1-methylpyrrole-3-sulfonyl)-2,4(1H,3H)-quinazolinedion-1-yl]-N-(3-pyridyl)acetamide]", "IC50": 4600}
{"smiles": "O=c1[nH]c2cc(Cl)ccc2c(=O)n1S(=O)(=O)c1ccc[nH]1", "note": "[Example 125, 7-chloro-3-(pyrrole-2-sulfonyl)-2,4(1H,3H)-quinazolinedione]", "IC50": 29000}
{"smiles": "O=C(O)C[n+]1cccc(NC(=O)Cn2c(=O)n(S(=O)(=O)c3ccc(Cl)cc3)c(=O)c3ccc(Cl)cc32)c1", "note": "[Example 84, 3-{[7-chloro-3-(4-chlorobenzenesulfonyl)-2,4(1H,3H)-quinazolinedion-1-yl]acetylamino}-N-carboxymethylpyridinium bromide]", "IC50": 43}
{"smiles": "O=C(O)CNC(=O)c1cccc(Cn2c(=O)n(S(=O)(=O)c3ccc(Cl)cc3)c(=O)c3ccc(Cl)cc32)c1", "note": "[Example 70, 3-(7-chloro-3-(4-chlorobenzenesulfonyl)-2,4(1H,3H)-quinazolinedion-1-yl)methylbenzoylglycine]", "IC50": 230}
{"smiles": "NCc1ccc(NC(=O)Cn2c(=O)n(S(=O)(=O)c3ccc(Cl)cc3)c(=O)c3ccc(Cl)cc32)cc1", "note": "[Example 46, [7-chloro-3-(4-chlorobenzenesulfonyl)-2,4(1H,3H)-quinazolinedion-1-yl]-N-(4-aminomethylphenyl)acetamide]", "IC50": 320}
{"smiles": "N[C@@H](CC(=O)NCc1cccc(NC(=O)Cn2c(=O)n(S(=O)(=O)c3ccc(Cl)cc3)c(=O)c3ccc(Cl)cc32)c1)C(=O)O", "note": "[Example 52, [7-chloro-3-(4-chlorobenzenesulfonyl)-2,4(1H,3H)-quinazolinedion-1-yl]-N-(3-β-L-aspartylaminomethylphenyl)acetamide]", "IC50": 110}
{"smiles": "CC[n+]1cccc(NC(=O)Cn2c(=O)n(S(=O)(=O)c3ccc(Cl)cc3)c(=O)c3ccc(Cl)cc32)c1", "note": "[Example 56, 3-{[7-chloro-3-(4-chlorobenzenesulfonyl)-2,4(1H,3H)-quinazolinedion-1-yl]acetylamino}-N-ethylpyridinium iodide]", "IC50": 31}
{"smiles": "O=C(Cn1c(=O)n(S(=O)(=O)c2ccc(Cl)cc2)c(=O)c2ccc(Cl)cc21)Nc1ccncn1", "note": "[Example 85, [7-chloro-3-(4-chlorobenzenesulfonyl)-2,4(1H,3H)-quinazolinedion-1-yl]-N-(4-pyrimidinyl)acetamide]", "IC50": 190}
{"smiles": "N=C(N)Nc1ccc(Cn2c(=O)n(S(=O)(=O)c3ccc(Cl)cc3)c(=O)c3ccc(Cl)cc32)cc1", "note": "[Example 107, 7-chloro-3-(4-chlorobenzenesulfonyl)-1-(4-guanidinobenzyl)-2,4(1H,3H)-quinazolinedione]", "IC50": 230}
{"smiles": "O=C(Cn1c(=O)n(S(=O)(=O)c2ccc(Cl)cc2)c(=O)c2ccc(Cl)cc21)c1ccccc1", "note": "[Example 108, 7-chloro-3-(4-chlorobenzenesulfonyl)-1-phenacyl-2,4(1H,3H)-quinazolinedione]", "IC50": 1300}
{"smiles": "O=c1c2ccc(Cl)cc2n(Cc2cccnc2)c(=O)n1S(=O)(=O)c1ccc(Cl)cc1", "note": "[Example 114, 7-chloro-3-(4-chlorobenzenesulfonyl)-1-(3-pyridylmethyl)-2,4(1H,3H)-quinazolinedione]", "IC50": 46}
{"smiles": "O=c1[nH]c2cc(O)ccc2c(=O)n1S(=O)(=O)c1ccc(Cl)cc1", "note": "[Example 151]", "IC50": 2800}
{"smiles": "O=C(O)CCCOc1ccc(NC(=O)Cn2c(=O)n(S(=O)(=O)c3ccc(Cl)cc3)c(=O)c3ccc(Cl)cc32)cc1", "note": "[Example 111, [7-chloro-3-(4-chlorobenzenesulfonyl)-2,4(1H,3H)-quinazolinedion-1-yl]-N-(4-(3-carboxylpropyloxy)phenyl)acetamide]", "IC50": 130}
{"smiles": "N#Cc1ccc(Cn2c(=O)n(S(=O)(=O)c3ccc(Cl)cc3)c(=O)c3ccc(Cl)cc32)cc1", "note": "[Example 60, 7-chloro-3-(4-chlorobenzenesulfonyl)-1-(4-cyanobenzyl)-2,4(1H,3H)-quinazolinedione]", "IC50": 340}
{"smiles": "O=C(Cn1c(=O)n(S(=O)(=O)c2ccc(Cl)cc2)c(=O)c2ccc(Cl)cc21)Nc1ccc(N2CCNCC2)cc1", "note": "[Example 93, [7-chloro-3-(4-chlorobenzenesulfonyl)-2,4(1H,3H)-quinazolinedion-1-yl]-N-(4-piperazin-1-yl)acetamide]", "IC50": 390}
{"smiles": "O=C(Cn1c(=O)n(S(=O)(=O)c2ccc(Cl)cc2)c(=O)c2ccc(Cl)cc21)Nc1cccnc1", "note": "[Example 53, [7-chloro-3-(4-chlorobenzenesulfonyl)-2,4(1H,3H)-quinazolinedion-1-yl]-N-(3-pyridyl)acetamide]", "IC50": 50}
{"smiles": "O=C(O)CCC(=O)Nc1ccc(Cn2c(=O)n(S(=O)(=O)c3ccc(Cl)cc3)c(=O)c3ccc(Cl)cc32)cc1", "note": "[Example 73]", "IC50": 2300}
